Laboratory results as given in US7205299B2, “Indole derivatives having an apoptosis-inducing effect” (Zentaris GmbH, priority 2003, dated 2007).
pEC50: −log10 of the molar value. ≈ marks a conversion by molar mass, not a printed value.

Columns and labels:
resistant line LT12/mdr = test: XTT proliferation assay, LT12/mdr; assay type: cell-based; details: Rattus norvegicus, LT12mdr
Source text: (§1) For further characterization, substances 1, 2, 4 and 11 were investigated with regard to their effect on mulitdrug-resistance cell lines as compared with that on nonresistant wild-type cell lines.
(§2) The cell lines which were investigated are the murine cell line L1210, the acute myeloid leukemia cell line LT12 and the resistant lines L1210/mdr and LT12/mdr. The murine cell line P388 (methylcholanthrene-induced lymphoid neoplasm) and doxorubicin-resistant P388 were also included as test systems.
(§3) The test results are summarized in Table 2 below: • XTT proliferation assay, EC50 in μg/ml

murine cell line P388 = test: XTT proliferation assay, P388; assay type: cell-based; details: Mus musculus
Source text: as §1, §2, §3

[1] = tested on: human glioblastoma cell line SF-268; test: XTT proliferation assay, SF-268; assay type: cell-based
Source text: (§4) The antiproliferative activity of substances 1, 2, 4, 9, 11, 12, 13 and 15 was investigated in a proliferation test performed on established tumor cell lines (D. A. Scuderio et al. Cancer Res. 1988, 48, 4827–4833). The test which is used determines the cellular dehydrogenase activity and makes it possible to determine cell viability and determine cell number indirectly. The cell lines which are used are the human cervical carcinoma cell line KB/HeLa (ATCC CCL17), the ovarian adenocarcinoma cell line SKOV-3 (ATCC HTB77), the human glioblastoma cell line SF-268 (NCI 503138) and the lung carcinoma cell line NCI-H460 (NCI 503473).

KB/HeLa cells = test: Cell cycle analysis (G2/M arrest); assay type: cell-based; details: Homo sapiens, 24 hours, 37° C., read-out: EC50 (50% of cells in G2/M)
Protocol: For the cell cycle analysis, KB/HeLa cells were treated with different concentrations of the test substances (0.1–1000 nM) at 37° C. for 24 hours.
The percentage of cells arrested in the G2/M phase of the cell cycle after having been treated with reference substances or selected test substances is shown in Table 4 below. The results were analyzed using special analytical software (ModFit™).

bovine tubulin = bovine tubulin (Bos taurus, UniProt P81947+Q6B856); test: Inhibition of tubulin polymerization; assay type: biochemical; details: summary of Table 3
Protocol: Substances 1, 4, 9, 11, 12, 13 and 15 were tested for their ability to inhibit the polymerization of bovine tubulin in an in-vitro test (D. M. Bollag et al. Cancer Res. 1995, 55, 2325–2333). This test uses-tubulin which has been purified by cycles of polymerization and depolymerization and which is caused to polymerize by adding GTP and heating it. Table 3 gives the EC50 values causing inhibition of the polymerization of tubulin containing 30% associated proteins (MPAs).

[2] = tested on: lung carcinoma cell line NCI-H460; test: XTT proliferation assay, NCI-H460; assay type: cell-based, human
Source text: as §4

[3] = tested on: acute myeloid leukemia cell line LT12; test: XTT proliferation assay, LT12; assay type: cell-based; details: Rattus norvegicus
Source text: as §1, §2, §3

[4] = tested on: ovarian adenocarcinoma cell line SKOV-3; test: XTT proliferation assay, SKOV-3; assay type: cell-based, human
Source text: as §4

murine cell line L1210 = test: XTT proliferation assay, L1210; assay type: cell-based; details: Mus musculus
Source text: as §1, §2, §3

[5] = tested on: doxorubicin-resistant P388; test: XTT proliferation assay, P388ADR; assay type: cell-based, murine; details: Mus musculus
Source text: as §1, §2, §3

[6] = tested on: resistant line L1210/mdr (L1210VCR); test: XTT proliferation assay, L1210VCR; assay type: cell-based, murine; details: Mus musculus
Source text: as §1, §2, §3

[7] = tested on: human cervical carcinoma cell line KB/HeLa; test: XTT proliferation assay, KB/HeLa; assay type: cell-based
Source text: as §4

[8] = target: human DNA topoisomerase II (Homo sapiens, UniProt P11388); test: kDNA assay for testing topoisomerase II activity; assay type: biochemical; details: compound 1 at 100, 31.6 and 10 μM; reference compounds 100 μM
Protocol: In this assay, which was described by P. Arimondo (Anti-Cancer Drug Design 2000, 15(6), 413–421), kDNA is treated with human DNA topoisomerase II in the absence or presence of the test compounds. In the assay, compound 1 according to the invention was tested at three different concentrations (100, 31.6 and 10 μM). A positive control and the reference compounds m-amsacrine (m-amsa), paclitaxel (Taxol) and vincristine, with the concentration in each case being 100 μM, were used for comparison.
2 μL of 10× assay buffer, 1 μL of kDNA (200 ng), 0.5 μL of human topoisomerase II (1 unit) and 15.5 μL of H2O are added by pipette to 1 μL of initially introduced test substance (20 times concentrated in 100% DMSO) and the reagents are mixed.
The reaction assay samples are placed in a heating block which has been preheated to 37° C. and incubated at 37° C. for 10 min. The incubation is stopped after adding 4 μL of 5× Stop buffer and the substance is subsequently extracted with CIA. After that, 20 μL of the supernatant are loaded onto a 1% agarose gel containing 0.25 μg of ethidium bromide/mL and separated at 100 V for 1 h. Finally, the gel is photographed under UV excitation (see FIG. 1). The inhibition of the decatenation of kDNA is quantified using the GelPro® Analyzer Software (see FIG. 2).

human topoisomerase II = human topoisomerase II (Homo sapiens, UniProt P11388); test: pRYG relaxation assay for testing topoisomerase II activity; assay type: biochemical; details: compound 1 at 100, 31.6 and 10 μM; reference compounds 316 and 100 μM
Protocol: In the assay, the compound 1 according to the invention was tested at three different concentrations (100, 31.6 and 10 μM). The reference compounds m-amsacrine, paclitaxel (Taxol) and vincristine were used, at concentrations of 316 and 100 μM, for comparison.
2 μL of 10× assay buffer, 0.5 μL of pRYG DNA (125 ng), 0.5 μL of human topoisomerase II (1 unit) and 16 μL of H2O are added by pipette to 1 μL of initially introduced test substance (20 times concentrated in 100% DMSO) and the reagents are mixed. The reaction assay samples are placed in a heating block which has been preheated to 37° C. and incubated at 37° C. for 30 min. The incubation is stopped after adding 4 μL of 5× Stop buffer. After that, 10 μL of the assay sample are loaded onto a 1.2% agarose gel containing 0.25 μg of ethidium bromide/mL and separated at 100 V for 2.5 h. Finally, the gel is photographed under UV excitation (see FIG. 3). The inhibition of pRYG relaxation is quantified using the GelPro® Analyzer Software (see FIG. 4).

Sequence of bovine tubulin (P81947 whole entry): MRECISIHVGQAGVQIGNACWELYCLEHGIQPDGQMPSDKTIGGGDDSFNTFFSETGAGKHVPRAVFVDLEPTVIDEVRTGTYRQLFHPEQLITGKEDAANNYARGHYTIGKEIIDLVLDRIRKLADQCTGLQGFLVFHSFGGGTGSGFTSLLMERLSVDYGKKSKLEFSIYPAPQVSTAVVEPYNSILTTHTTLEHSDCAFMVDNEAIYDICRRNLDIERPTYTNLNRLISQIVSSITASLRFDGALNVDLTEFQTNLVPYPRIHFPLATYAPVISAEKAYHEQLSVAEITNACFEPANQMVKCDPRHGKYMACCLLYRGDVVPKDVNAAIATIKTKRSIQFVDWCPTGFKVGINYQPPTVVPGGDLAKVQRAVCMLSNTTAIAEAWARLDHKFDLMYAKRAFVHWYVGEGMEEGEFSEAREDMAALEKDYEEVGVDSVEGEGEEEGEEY
Sequence of bovine tubulin (Q6B856 whole entry): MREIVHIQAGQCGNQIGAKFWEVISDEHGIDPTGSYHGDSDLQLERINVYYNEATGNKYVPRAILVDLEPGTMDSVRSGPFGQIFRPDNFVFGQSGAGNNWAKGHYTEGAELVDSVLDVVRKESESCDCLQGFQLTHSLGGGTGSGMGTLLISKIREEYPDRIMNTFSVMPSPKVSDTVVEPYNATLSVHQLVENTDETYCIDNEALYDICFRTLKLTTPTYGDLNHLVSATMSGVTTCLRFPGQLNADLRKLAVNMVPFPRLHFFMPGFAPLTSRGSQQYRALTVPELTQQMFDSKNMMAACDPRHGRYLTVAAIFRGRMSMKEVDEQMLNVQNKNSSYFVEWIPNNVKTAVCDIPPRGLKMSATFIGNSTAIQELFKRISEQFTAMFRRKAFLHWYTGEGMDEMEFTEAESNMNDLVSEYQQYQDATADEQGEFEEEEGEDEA
Sequence of human DNA topoisomerase II (P11388 whole entry): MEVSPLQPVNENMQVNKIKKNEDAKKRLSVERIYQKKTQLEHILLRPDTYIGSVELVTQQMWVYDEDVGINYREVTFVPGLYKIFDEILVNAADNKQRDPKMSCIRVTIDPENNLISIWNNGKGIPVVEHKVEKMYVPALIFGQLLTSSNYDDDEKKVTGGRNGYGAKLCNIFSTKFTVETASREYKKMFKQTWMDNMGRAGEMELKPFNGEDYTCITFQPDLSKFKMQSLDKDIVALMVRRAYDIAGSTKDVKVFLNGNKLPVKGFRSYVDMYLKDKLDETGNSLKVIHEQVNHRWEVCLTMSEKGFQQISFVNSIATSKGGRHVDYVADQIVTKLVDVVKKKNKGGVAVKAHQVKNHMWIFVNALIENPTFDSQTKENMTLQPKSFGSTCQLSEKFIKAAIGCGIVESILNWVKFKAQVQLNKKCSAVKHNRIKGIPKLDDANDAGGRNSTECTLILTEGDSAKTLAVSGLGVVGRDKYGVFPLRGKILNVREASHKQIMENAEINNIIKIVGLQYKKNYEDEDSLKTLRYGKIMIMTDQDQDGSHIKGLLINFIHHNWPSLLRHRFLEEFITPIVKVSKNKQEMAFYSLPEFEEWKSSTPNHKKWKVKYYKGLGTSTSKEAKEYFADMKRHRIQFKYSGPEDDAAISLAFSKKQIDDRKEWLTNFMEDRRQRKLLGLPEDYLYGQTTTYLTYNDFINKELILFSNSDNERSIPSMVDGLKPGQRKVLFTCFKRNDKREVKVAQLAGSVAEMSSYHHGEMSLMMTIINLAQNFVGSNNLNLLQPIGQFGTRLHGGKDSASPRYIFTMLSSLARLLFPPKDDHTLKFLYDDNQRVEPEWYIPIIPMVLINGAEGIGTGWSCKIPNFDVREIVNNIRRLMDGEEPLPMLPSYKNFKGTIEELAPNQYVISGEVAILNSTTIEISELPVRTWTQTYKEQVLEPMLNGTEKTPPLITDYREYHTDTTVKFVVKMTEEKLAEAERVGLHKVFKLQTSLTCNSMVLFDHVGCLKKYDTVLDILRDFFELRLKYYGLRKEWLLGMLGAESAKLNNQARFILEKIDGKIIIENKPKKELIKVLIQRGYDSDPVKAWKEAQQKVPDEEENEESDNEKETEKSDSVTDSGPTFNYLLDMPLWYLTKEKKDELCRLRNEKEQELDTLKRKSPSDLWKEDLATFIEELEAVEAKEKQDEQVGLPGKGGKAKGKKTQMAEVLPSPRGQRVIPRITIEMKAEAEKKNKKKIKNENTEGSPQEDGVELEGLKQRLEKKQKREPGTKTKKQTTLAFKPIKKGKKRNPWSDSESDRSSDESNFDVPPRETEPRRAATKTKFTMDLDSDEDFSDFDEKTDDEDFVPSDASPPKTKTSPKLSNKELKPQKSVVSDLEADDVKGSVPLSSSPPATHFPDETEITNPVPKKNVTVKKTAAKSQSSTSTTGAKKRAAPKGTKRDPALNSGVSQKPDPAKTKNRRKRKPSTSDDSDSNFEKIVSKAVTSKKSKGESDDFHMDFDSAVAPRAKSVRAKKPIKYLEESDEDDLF
Sequence of human topoisomerase II (P11388 whole entry): as above

Compound | EC50 (resistant line LT12/mdr) [µg/mL] | EC50 (murine cell line P388) [µg/mL] | EC50 ([1]; Homo sapiens) [µg/mL] | pEC50 (KB/HeLa cells) | inhibitory effect on tubulin polymerization (in words) (bovine tubulin) | EC50 ([2]; Homo sapiens) [µg/mL] | EC50 [3] [µg/mL] | EC50 ([4]; Homo sapiens, SK-OV-3, read-out: XTT proliferation assay, EC50, SKOV3) [µg/mL] | EC50 (murine cell line L1210) [µg/mL] | EC50 [5] [µg/mL] | EC50 [6] [µg/mL] | EC50 ([7]; Homo sapiens, HeLa) [µg/mL] | XTT proliferation assay, EC50, SF-268 [1] [µg/mL] | XTT proliferation assay, EC50, NCI-H460 [2] [µg/mL] | XTT proliferation assay, EC50, SKOV3 ([4]; SKOV3) [µg/mL] | XTT proliferation assay, EC50, KB/HeLa ([7]; KB/HeLa) [µg/mL] | inhibition of topoisomerase II, kDNA decatenation [8] | inhibition of topoisomerase II, pRYG DNA relaxation (human topoisomerase II)
O=C(Nc1ccc2ncccc2c1)C(=S)c1cn(Cc2ccc(Cl)cc2)c2ccccc12 [Compound 11, 2-[1-(4-chlorobenzyl)-1H-indol-3-yl]-N-quinolin-6-yl-2-thioxoacetamide] | 0.054 (≈ 0.118 µM) | 0.018 (≈ 0.0395 µM) | 0.036 (≈ 0.079 µM) | 7.38 | very potent inhibitory effect | 0.057 (≈ 0.125 µM) | 0.023 (≈ 0.0504 µM) | 0.029 (≈ 0.0636 µM) | 0.052 (≈ 0.114 µM) | 0.051 (≈ 0.112 µM) | 0.067 (≈ 0.147 µM) | 0.036 (≈ 0.079 µM) |  |  |  |  |  | 
O=C(Nc1cccc2cnccc12)C(=O)c1cn(Cc2ccc(Cl)cc2)c2ccccc12 [Compound 13, 2-[l-(4-chlorobenzyl)-1H-indol-3-yl]-N-isoquinolin-5-yl-2-oxoacetamide] |  |  |  |  | do not exert any effect |  |  |  |  |  |  |  | >3.16 | >3.16 | >3.16 | >3.16 |  | 
CC(=O)O[C@H]1C(=O)[C@@]2(C)[C@H]([C@H](OC(=O)c3ccccc3)[C@]3(O)C[C@H](OC(=O)[C@H](O)[C@@H](NC(=O)c4ccccc4)c4ccccc4)C(C)=C1C3(C)C)[C@]1(OC(C)=O)CO[C@@H]1C[C@@H]2O [Paclitaxel, paclitaxel] | 0.34 (≈ 0.398 µM) | 0.035 (≈ 0.041 µM) |  | 7.57 |  |  | 0.005 (≈ 0.00586 µM) |  | 0.048 (≈ 0.0562 µM) | > 3.16 | > 3.16 |  |  |  |  |  | neither paclitaxel nor vincristine was observed to have any inhibitory effects | neither paclitaxel nor vincristine was observed to have any inhibitory effects
